Assay: In vivo biodistribution of ^225Ac complexes after intravenous injection
Parameters: species or system C57BL/6 mice
Description: In Vivo Biodistribution of ^225Ac Complexes of Macropa and DOTA. All experiments were approved by the Institutional Animal Care Committee (IACC) of the University of British Columbia and were performed in accordance with the Canadian Council on Animal Care Guidelines. A total of 9 female C57BL/6 mice (6-8 weeks old, 20-25 g) were used for the biodistribution study of each radiometal complex, n=3 for each time point.
Macropa (100 μL of a 1 mg/mL solution in NH4OAc) was diluted with 387 μL of NH4OAc (1 M, pH 7), and an aliquot (203 μL) of ^225Ac(NO3)3 (˜157 kBq) was then added; the pH of this solution was adjusted to 6.5-7 by the addition of 1 M NaOH (210 μL, trace metal grade). After 5 min at ambient temperature, the reaction solution was analyzed by TLC (0.4 M pH 4 sodium citrate as the eluent), which confirmed >95% radiochemical yield. The reaction was allowed to proceed overnight, and the radiochemical yield was again confirmed to be >95% the following morning. At this time, mice were anesthetized by 2% isoflurane, and approximately 100 μL (10-15 kBq) of the [^225Ac(macropa)]^+ complex were injected into the tail vein of each mouse. After injection, mice were allowed to recover and roam freely in their cages, and were euthanized by CO2 inhalation at 15 min, 1 h, or 5 h (n=3 at each time point) post-injection. Blood was collected by cardiac puncture and placed into an appropriate test tube for scintillation counting. Tissues collected included heart, liver, kidneys, lungs, small intestine, large intestine, brain, bladder, spleen, stomach, pancreas, bone, thyroid, tail, urine, and feces. Tissues were weighed and then counted with a calibrated gamma counter (Packard, Cobra II model 5002) using three energy windows: 60-120 keV (window A), 180-260 keV (window B), and 400-480 keV (window C). Counting was performed both immediately after sacrifice and after 7 days; counts were decay corrected from the time of injection and then converted to the percentage of injected dose (% ID) per gram of tissue (% ID/g). No differences were noted between the data; therefore, the biodistributions are reported using the data acquired immediately using window A.
The biodistribution studies of [^225Ac(DOTA)]^− and ^225Ac(NO3)3 were carried out as described above for [^225Ac(macropa)]^+, with the following modifications. [^225Ac(DOTA)]^− was prepared by adding ^225Ac(NO3)3 (338 μL, 1.1 MBq) to a solution of DOTA (100 μg, 20 mg/mL in H2O) in NH4OAc (467 μL, 0.15 M, pH 7). The pH of the solution was adjusted to 7 using NH4OAc (150 μL, 1 M, pH 7) and the solution was heated at 85° C. for 45 min. RCY>99% was confirmed by TLC as described above. [^225Ac(DOTA)]^− was diluted with saline to a final concentration of 0.05 MBq/100 μL, and 100 μL were injected into each mouse. ^225Ac(NO3)3 (˜58 μL, 0.4 MBq) was diluted and injected in the same manner as [^225Ac(DOTA)]^−. One mouse that was to be euthanized at the 5 h time point in the [^225Ac(DOTA)]^− study died shortly after injection. In the same manner, one mouse that was to be euthanized at the 1 h time point in the ^225Ac(NO3)3 study died.
The in vivo stability [^225Ac(macropa)]^+ was examined by comparing its biodistribution to those of ^225Ac(NO3)3 and [^225Ac(DOTA)]^−. C57BL/6 mice were injected via tail vein with 10-50 kBq of each radiometal complex and were sacrificed after 15 min, 1 h, or 5 h. The amount of ^225Ac retained in each organ was quantified by gamma counting and reported as the percent of injected dose per gram of tissue (% ID/g). The results of these studies are compiled in Tables 1-3. Inadequate stability of an ^225Ac complex leading to the loss of radioisotope in vivo is manifested by the accumulation of ^225Ac in the liver, spleen, and bone of mice.^[11,12,32] […] The biodistribution profile of [^225Ac(macropa)]^+ (FIG. 3B) differs markedly from that of ^225Ac(NO3)3. […]

[1] = 1 h after i.v. injection, energy window B (180-260 keV)
[2] = 1 h after i.v. injection, energy window C (400-480 keV)
[3] = 5 h after i.v. injection, energy window A (60-120 keV)
[4] = 5 h after i.v. injection, energy window B (180-260 keV)
[5] = 5 h after i.v. injection, energy window C (400-480 keV)
[6] = i.v. injection, C57BL/6 mice, up to 5 h

O=C([O-])c1cccc(CN2CCOCCOCCN(Cc3cccc(C(=O)[O-])n3)CCOCCOCC2)n1.[225Ac+3] [[^225Ac(macropa)]^+]
% ID/g in pancreas [1]: 0.12 % ID/g
% ID/g in small intestines [1]: 0.94 % ID/g
% ID/g in spleen [1]: 0.23 % ID/g
% ID/g in stomach [1]: 0.33 % ID/g
% ID/g in tail [1]: 1.82 % ID/g
% ID/g in thyroids [1]: 0.10 % ID/g
% ID/g in urine [1]: 517.19 % ID/g
% ID/g in bladder [2]: 9.00 % ID/g
% ID/g in blood [2]: 0.54 % ID/g
% ID/g in bone (femur + joint) [2]: 0.70 % ID/g
% ID/g in brain [2]: 0.23 % ID/g
% ID/g in feces [2]: 0.69 % ID/g
% ID/g in heart [2]: 0.23 % ID/g
% ID/g in kidneys [2]: 17.38 % ID/g
% ID/g in large intestines [2]: 0.79 % ID/g
% ID/g in liver [2]: 1.08 % ID/g
% ID/g in lungs [2]: 0.84 % ID/g
% ID/g in pancreas [2]: 0.43 % ID/g
% ID/g in small intestines [2]: 1.62 % ID/g
% ID/g in spleen [2]: 0.48 % ID/g
% ID/g in stomach [2]: 0.17 % ID/g
% ID/g in tail [2]: 2.57 % ID/g
% ID/g in thyroids [2]: 8.34 % ID/g
% ID/g in urine [2]: 641.63 % ID/g
% ID/g in bladder [3]: 4.25 % ID/g
% ID/g in blood [3]: 0.01 % ID/g
% ID/g in bone (femur + joint) [3]: 0.05 % ID/g
% ID/g in brain [3]: 0.02 % ID/g
% ID/g in feces [3]: 3.46 % ID/g
% ID/g in heart [3]: 0.10 % ID/g
% ID/g in kidneys [3]: 0.74 % ID/g
% ID/g in large intestines [3]: 0.49 % ID/g
% ID/g in liver [3]: 0.39 % ID/g
% ID/g in lungs [3]: 0.01 % ID/g
% ID/g in pancreas [3]: 0.10 % ID/g
% ID/g in small intestines [3]: 0.29 % ID/g
% ID/g in spleen [3]: 0.11 % ID/g
% ID/g in stomach [3]: 0.01 % ID/g
% ID/g in tail [3]: 0.14 % ID/g
% ID/g in thyroids [3]: 0.10 % ID/g
% ID/g in urine [3]: 12.78 % ID/g
% ID/g in bladder [4]: 3.69 % ID/g
% ID/g in blood [4]: 0.00 % ID/g
% ID/g in bone (femur + joint) [4]: 0.02 % ID/g
% ID/g in brain [4]: −0.01 % ID/g
% ID/g in feces [4]: 3.49 % ID/g
% ID/g in heart [4]: −0.04 % ID/g
% ID/g in kidneys [4]: 0.78 % ID/g
% ID/g in large intestines [4]: 0.45 % ID/g
% ID/g in liver [4]: 0.36 % ID/g
% ID/g in lungs [4]: −0.05 % ID/g
% ID/g in pancreas [4]: −0.12 % ID/g
% ID/g in small intestines [4]: 0.29 % ID/g
% ID/g in spleen [4]: 0.09 % ID/g
% ID/g in stomach [4]: 0.04 % ID/g
% ID/g in tail [4]: 0.13 % ID/g
% ID/g in thyroids [4]: −6.94 % ID/g
% ID/g in urine [4]: 13.51 % ID/g
% ID/g in bladder [5]: 8.52 % ID/g
% ID/g in blood [5]: 0.04 % ID/g
% ID/g in bone (femur + joint) [5]: 0.08 % ID/g
% ID/g in brain [5]: −0.01 % ID/g
% ID/g in feces [5]: 5.27 % ID/g
% ID/g in heart [5]: 0.28 % ID/g
% ID/g in kidneys [5]: 1.07 % ID/g
% ID/g in large intestines [5]: 0.68 % ID/g
% ID/g in liver [5]: 0.55 % ID/g
% ID/g in lungs [5]: 0.15 % ID/g
% ID/g in pancreas [5]: 0.13 % ID/g
% ID/g in small intestines [5]: 0.42 % ID/g
% ID/g in spleen [5]: 0.43 % ID/g
% ID/g in stomach [5]: 0.13 % ID/g
% ID/g in tail [5]: 0.28 % ID/g
% ID/g in thyroids [5]: 19.89 % ID/g
% ID/g in urine [5]: 22.27 % ID/g
route of excretion (in words) (i.v. injection, C57BL/6 mice): Most of the injected dose was renally excreted
clearance from blood / mice (in words) [6]: rapidly cleared from mice
organ accumulation (in words) [6]: did not accumulate in any organ

— patent US11554182B2, “Macrocyclic complexes of alpha-emitting radionuclides and their use in targeted radiotherapy of cancer” (CORNELL UNIVERSITY, priority 2017, dated 2023)
